Measured values as given in US8338426B2, “Piperazinyl derivatives useful as modulators of the neuropeptide Y2 receptor” (Janssen Pharmaceutica NV, priority 2007, dated 2012).
Read-outs that look alike come from different tables or passages of the source.

What was measured:
rat Y2 receptor = target: T1, rat Y2 receptor (Rattus norvegicus, UniProt Q9ERC0); assay: Neuropeptide Y2 radioligand binding assay, [125I]PYY, rat hippocampus membranes; conditions: read-out: rY2 pKi (converted)
T1 construct: membranes from rat or mouse hippocampus were prepared; from tissue; host or cells: rat hippocampus membranes
T1 sequence (Q9ERC0 1-381): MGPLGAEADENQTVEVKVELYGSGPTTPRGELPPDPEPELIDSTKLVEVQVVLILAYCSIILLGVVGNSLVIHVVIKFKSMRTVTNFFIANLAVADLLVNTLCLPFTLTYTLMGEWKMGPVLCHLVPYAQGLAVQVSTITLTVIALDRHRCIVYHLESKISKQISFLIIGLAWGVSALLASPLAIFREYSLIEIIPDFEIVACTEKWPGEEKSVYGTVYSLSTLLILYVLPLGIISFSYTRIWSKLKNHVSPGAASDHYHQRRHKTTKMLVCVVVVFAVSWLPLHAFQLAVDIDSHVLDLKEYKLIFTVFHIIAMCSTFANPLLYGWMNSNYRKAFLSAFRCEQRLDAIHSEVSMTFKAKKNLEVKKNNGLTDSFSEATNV
Experimental: Radioligand binding assays for the human and rat/mouse Y2 receptor were performed as described in Bonaventure, P., D. Nepomuceno, C. Mazur, B. Lord, D. A. Rudolph, J. A. Jablonowski, N. I. Carruthers and T. W. Lovenberg, J Pharmacol Exp Ther. 2004, 308, 1130.
KAN-Ts endogenously expressing Y2 receptors were used, for the rat and mouse Y2 receptor, membranes from rat or mouse hippocampus were prepared. Membranes were incubated with [^125I]PYY (80 pM) in the presence or absence of test compound for 1 h at rt. The reaction was stopped by filtration through GF/C filter plates pre-soaked in 0.3% polyethylenimine and subsequently washed with Tris-HCl, 50 mM, 5 mM EDTA buffer. Plates were dried for 1 h in a 55° C. oven, scintillation fluid was added and the radioactivity was counted in a Packard TopCount. Specific binding to the NPY receptor subtypes was determined by radioactivity that was bound in the presence of 1 μM NPY.
Apparent Ki values were calculated as K=IC50/(1+C/KD), where C is concentration of the radioligand and pKi=−log Ki. Data presented below are expressed as mean±S.E.M.

[1] = test system: panel of 50 receptors, ion channels and transporters; assay: CEREP panel of 50 receptors, ion channels and transporters; format: binding; conditions: concentrations up to 1 μM
Experimental: The selectivity of the compound of formula (A) was further evaluated in a large variety of ion-channels, transporters and receptor-binding assays including the Y1 receptor subtype. These assays were performed by CEREP (Celles L'Evescault, France; www.cere.com<http//www.cerea.com>). Selectivity vs the Y5 receptor subtype was evaluated as described in Bonaventure, P., D. Nepomuceno, C. Mazur, B. Lord, D. A. Rudolph, J. A. Jablonowski, N. I. Carruthers and T. W. Lovenberg, J Pharmacol Exp Ther. 2004, 308, 1130.
The compound of formula (A) was assayed by binding in a panel of 50 receptors, ion channels and transporters assays (CEREP) including adenosine (A1,A2A,A3), adrenergic (α1, α2, β1), angiotensin (AT1), dopamine (D1, D2), bradykinin (B2), cholecystokinin (CCKA), galanin (GAL2), melatonin ML1), muscarinic (M1, M2, M3), neurotensin (NTS), neurokinin (NK2, NK3), NPY (Y1, Y2) opiate (m, k, d), serotonin (5-HT1A, 5-HT1B, 5-HT2A, 5-HT3, 5-HT5A, 5-HT6, 5-HT7), somatostatin, vasopressin (V1a), norepinephrine transporter, dopamine transporter and ion channels (sodium, calcium, potassium and chloride).

[2] = Pharmacokinetic study in rats; format: in vivo; conditions: rat, whole blood; for Vd: iv
Experimental: (§1) The pharmacokinetic, blood-brain barrier penetration and ex vivo receptor occupancy studies were performed as described in Bonaventure, P., D. Nepomuceno, C. Mazur, B. Lord, D. A. Rudolph, J. A. Jablonowski, N. I. Carruthers and T. W. Lovenberg, J Pharmacol Exp Ther. 2004, 308, 1130.
(§2) The compound of formula (A) was formulated in 20% hydroxypropylbetacyclodextrine. Subcutaneous (SC), oral (PO) or intravenous (IV) dosing was followed by blood sampling via cardiac puncture over a time course. Blood samples consisted of 250 μl samples taken from the heart using a 23-gauge needle into 1.5 ml micro-centrifuge tubes. Brains were removed from the animals and bisected down the midsagittal plane. One hemisphere was frozen on dry ice for ex vivo receptor binding autoradiography and the other was homogenized for LC/MS-MS analysis.
All blood samples were deproteinized by 1:4 dilution of the sample with acetonitrile with vigorous mixing. These samples were incubated for 5 minutes, and then centrifuged at 14,000 rpm in a micro-centrifuge for 4 minutes. The supernatant was recovered into auto-sampler vials and diluted 1:1 with sterile water. Samples were analyzed by LC-MS/MS. A Vydac SP C18 2.1×50 mm analytical column was used for separation.
Oral, subcutaneous and intravenous pharmacokinetic parameters of the compound of formula (A) were determined in rats and are listed in Table 2 below.

[3] = target: T2, Y2 receptor binding sites in rat hippocampus (Rattus norvegicus, UniProt Q9ERC0); assay: Ex vivo Y2 receptor occupancy in rats (autoradiography)
T2 construct: from tissue; host or cells: rat brain sections (hippocampus) after in vivo dosing
T2 sequence (Q9ERC0 1-381): T1 sequence (Q9ERC0 1-381)
Experimental: as §1, §2
Ex vivo receptor binding autoradiography was performed on brain sections. Twenty-micron-thick coronal sections at the level of the […] regions were collected and incubated for 10 min with 100 pM [^125I]PYY in Krebs-Ringer phosphate buffer (KRP) at pH 7.4 supplemented with 0.1% BSA, 0.05% bacitracin, and 1 μM BIBP-3226 for Y1 receptor occlusion. The sections were not washed prior to incubation and were incubated 10 minutes to avoid dissociation. Nonspecific binding was determined using adjacent sections incubated in the presence of 1 μM unlabelled hNPY. At the end of the incubation, sections were washed 4 times (4 minutes each) in ice cold buffer, dipped in deionized water and rapidly dried under a stream of cold air. Sections were exposed to a Fujifilm Imaging Plate (BAS-MS2025) for 12 hours. The Phosphor Imaging Plate was scanned using a Fuji Bio-Imaging Analyzer System (BAS-5000). The digitized computer images generated by the scanner were visualized and quantified using ImageGauge V3.12 software (Fujifilm).

Ki (rat Y2 receptor): 4.57 nM
inhibition against each receptor of the panel (except NPY Y2) [1]: less than 50%
Vd ([2]; read-out: VSS): 0.73 L/kg
Vd ([2]; read-out: Vz): 1.07 L/kg
AUC(0-inf) ([2]; IV): 708 nM·h
C0 ([2]; IV): 5.33 µM
clearance ([2]; IV): 2.54 L/h/kg
half-life ([2]; IV): 17.4 min
AUC(0-inf) ([2]; PO 10 mg/kg): 444 nM·h
Cmax ([2]; PO 10 mg/kg): 0.414 µM
Tmax ([2]; PO 10 mg/kg): 30 min
bioavailability ([2]; PO 10 mg/kg): 6%
half-life ([2]; PO 10 mg/kg): 31.8 min
AUC(0-inf) ([2]; SC 10 mg/kg): 7910 nM·h
Cmax ([2]; SC 10 mg/kg): 4.35 µM
Tmax ([2]; SC 10 mg/kg): 30 min
bioavailability ([2]; SC 10 mg/kg): > 100%
half-life ([2]; SC 10 mg/kg): 50 min
time of maximal receptor binding site occupancy ([3]; rat hippocampus, SC 10 mg/kg): ~1 h
ED50 ([3]; rat hippocampus, SC, t=60 min): 2 mg/kg
receptor occupancy at 10 mg/kg ([3]; rat, 10 mg/kg SC, read-out: maximal ex vivo receptor occupancy): ~100%
SMILES: CCN(CC)C(=O)C(c1ccccc1)N1CCN(c2ccc(NC(=O)c3ccccc3-c3cccnc3)cc2F)CC1 (racemic) [Cmpd (A), N-{4-[4-(Diethylcarbamoyl-phenyl-methyl)-piperazin-1-yl]-3-fluoro-phenyl}-2-pyridin-3-yl-benzamide]
